Source: ChEMBL document CHEMBL1201862, “PubChem BioAssay data set” (2004)
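The compound was tested at five concentrations on cells cultured in 96-well plates, with a 48-hour exposure period. At the GI50, growth is halved.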 Calls of active or inactive are those of the source. Cut-off read from the data, not from the text of the source: active = GI50 up to about 1.1 µM and inactive = higher.

Experiments:
Test in all cases: inhibition of tumour cell growth, NCI panel, 48 h
RPMI-8226 = test system: RPMI-8226
UACC-257 = test system: UACC-257
SF-295 = test system: SF-295
NCI-H522 = test system: NCI-H522
SN12C = test system: SN12C
OVCAR-8 = test system: OVCAR-8
MOLT-4 = test system: MOLT-4
U-251 = test system: U-251
A549 = test system: A549
HCC 2998 = test system: HCC 2998
NCI-H226 = test system: NCI-H226
SF-539 = test system: SF-539
SK-MEL-5 = test system: SK-MEL-5
CAKI-1 = test system: CAKI-1
HL-60 = test system: HL-60
SK-OV-3 = test system: SK-OV-3

Measured: GI50

Cn1cccc(C(=O)c2ccccc2)c1=O
inactive: RPMI-8226 > 100 µM | UACC-257 > 100 µM | SF-295 > 100 µM | NCI-H522 > 100 µM | SN12C > 100 µM | OVCAR-8 > 100 µM | MOLT-4 > 100 µM | U-251 > 100 µM | A549 > 100 µM | HCC 2998 > 100 µM | NCI-H226 > 100 µM | SF-539 > 100 µM | SK-MEL-5 > 100 µM | CAKI-1 > 100 µM | HL-60 > 100 µM | SK-OV-3 > 100 µM

CCC/C=C\C=C\C1(NS(=O)(=O)c2ccc(C)cc2)CCC(C(C)(C)C)CC1 (stereo not drawn)
inactive: RPMI-8226 7.96 µM | UACC-257 16.8 µM | SF-295 19.9 µM | NCI-H522 3.2 µM | SN12C 11.2 µM | OVCAR-8 > 10 µM | MOLT-4 7.1 µM | U-251 12.5 µM | A549 15.4 µM | HCC 2998 16.9 µM | NCI-H226 20.5 µM | SF-539 35.7 µM | SK-MEL-5 16.7 µM | CAKI-1 19.6 µM | HL-60 6.93 µM | SK-OV-3 26.7 µM

Cc1c(/C=N/NC(=O)c2ccc(Cl)cc2)c(=O)n(-c2ccccc2)n1C
inactive: RPMI-8226 > 100 µM | UACC-257 > 100 µM | SF-295 > 100 µM | NCI-H522 > 100 µM | SN12C > 100 µM | OVCAR-8 > 100 µM | MOLT-4 > 100 µM | U-251 > 100 µM | A549 > 100 µM | HCC 2998 > 100 µM | NCI-H226 > 100 µM | SF-539 > 100 µM | HL-60 > 100 µM | SK-OV-3 > 100 µM

O=C1Cc2ccccc2CCc2ccsc21
inactive: RPMI-8226 > 100 µM | UACC-257 > 100 µM | SF-295 > 100 µM | NCI-H522 > 100 µM | SN12C > 100 µM | OVCAR-8 > 100 µM | MOLT-4 > 100 µM | U-251 > 100 µM | A549 > 100 µM | HCC 2998 > 100 µM | NCI-H226 > 100 µM | SF-539 > 100 µM | SK-MEL-5 > 100 µM | CAKI-1 > 100 µM | HL-60 92.3 µM | SK-OV-3 > 100 µM

Clc1ccccc1C(n1cc(Br)cn1)n1cc(Br)cn1
inactive: RPMI-8226 13.6 µM | UACC-257 14.7 µM | SF-295 16.2 µM | NCI-H522 71.9 µM | SN12C 16.3 µM | OVCAR-8 19.3 µM | MOLT-4 14.2 µM | U-251 18.5 µM | HCC 2998 > 10 µM | NCI-H226 > 10 µM | SF-539 > 10 µM | SK-MEL-5 11 µM | CAKI-1 19 µM | HL-60 14.7 µM | SK-OV-3 > 10 µM

CC(=O)CC(=O)CCCC(=O)Nc1ccc(Cl)cc1Cl
inactive: RPMI-8226 > 100 µM | UACC-257 > 100 µM | SF-295 > 100 µM | NCI-H522 > 100 µM | SN12C > 100 µM | OVCAR-8 > 100 µM | MOLT-4 > 100 µM | A549 > 100 µM | HCC 2998 > 100 µM | NCI-H226 > 100 µM | SF-539 > 100 µM | CAKI-1 > 100 µM | HL-60 > 100 µM | SK-OV-3 > 100 µM

CC(=O)OCC1OC(OCc2ccccc2)C(Br)C(OC(C)=O)C1OC(C)=O (stereo not drawn)
inactive: RPMI-8226 > 100 µM | UACC-257 > 100 µM | SF-295 > 100 µM | NCI-H522 > 100 µM | SN12C > 100 µM | OVCAR-8 > 100 µM | MOLT-4 > 100 µM | U-251 > 100 µM | A549 > 100 µM | HCC 2998 > 100 µM | NCI-H226 > 100 µM | SF-539 > 100 µM | SK-MEL-5 > 100 µM | CAKI-1 > 100 µM | HL-60 > 100 µM

CC(=O)C1CC=C(C)CC1 (stereo not drawn)
inactive: RPMI-8226 > 100 µM | UACC-257 > 100 µM | SF-295 > 100 µM | NCI-H522 > 100 µM | SN12C > 100 µM | OVCAR-8 > 100 µM | MOLT-4 > 100 µM | U-251 > 100 µM | A549 > 100 µM | HCC 2998 > 100 µM | NCI-H226 > 100 µM | SF-539 > 100 µM | SK-MEL-5 > 100 µM | CAKI-1 > 100 µM | HL-60 > 100 µM | SK-OV-3 > 100 µM

CCOC1(COP(=O)(OCc2ccccc2)OCc2ccccc2)COC(COP(=O)(OCc2ccccc2)OCc2ccccc2)(OCC)CO1 (stereo not drawn)
inactive: RPMI-8226 74.6 µM | UACC-257 > 100 µM | SF-295 > 100 µM | NCI-H522 > 100 µM | SN12C > 100 µM | OVCAR-8 59 µM | MOLT-4 17.4 µM | U-251 > 100 µM | A549 9.02 µM | HCC 2998 > 100 µM | NCI-H226 89.7 µM | SF-539 > 100 µM | SK-MEL-5 > 100 µM | CAKI-1 > 100 µM | HL-60 30.8 µM | SK-OV-3 > 100 µM

CCOC(=O)C1=C(C)N(c2ccccc2)C2=C(C(=O)N(c3ccccc3)C2c2ccccc2)C1c1ccccc1 (stereo not drawn)
inactive: RPMI-8226 > 100 µM | UACC-257 > 100 µM | SF-295 > 100 µM | NCI-H522 > 100 µM | SN12C > 100 µM | OVCAR-8 > 100 µM | MOLT-4 > 100 µM | U-251 > 100 µM | A549 > 100 µM | HCC 2998 > 100 µM | NCI-H226 > 100 µM | SF-539 > 100 µM | SK-MEL-5 > 100 µM | CAKI-1 > 100 µM | HL-60 > 100 µM | SK-OV-3 > 100 µM

O=C1C=CC(=O)C2C1Cc1ccccc1C2c1ccccc1 (stereo not drawn)
inactive: RPMI-8226 22.3 µM | UACC-257 28.1 µM | SF-295 > 100 µM | NCI-H522 20.9 µM | SN12C 39.7 µM | OVCAR-8 25.9 µM | MOLT-4 32.7 µM | U-251 18.2 µM | A549 30.1 µM | HCC 2998 21.7 µM | NCI-H226 65.5 µM | SF-539 30.5 µM | SK-MEL-5 64 µM | CAKI-1 59 µM | HL-60 23 µM | SK-OV-3 > 100 µM

CC(=O)O[C@]1(C)OC(=O)[C@@H](C)N1[N+](=O)[O-]
inactive: RPMI-8226 > 100 µM | UACC-257 > 100 µM | SF-295 > 100 µM | NCI-H522 > 100 µM | SN12C > 100 µM | OVCAR-8 > 100 µM | MOLT-4 45.9 µM | U-251 > 100 µM | A549 > 100 µM | HCC 2998 > 100 µM | NCI-H226 > 100 µM | SF-539 > 100 µM | SK-MEL-5 > 100 µM | HL-60 32.1 µM | SK-OV-3 > 100 µM

Cc1ccc([N+]2=NC(c3ccc([N+](=O)[O-])cc3)=NN(c3ccccc3)C2)cc1
inactive: RPMI-8226 57.4 µM | UACC-257 47.1 µM | SF-295 53.3 µM | NCI-H522 16.4 µM | SN12C > 100 µM | OVCAR-8 42.1 µM | MOLT-4 21 µM | U-251 72.8 µM | A549 > 100 µM | HCC 2998 > 100 µM | NCI-H226 > 100 µM | SK-MEL-5 33.2 µM | HL-60 61.7 µM
